Assay results published in patent US12419956B2, “Controlled drug release system of photoresponsive nanocarriers, methods of making and using thereof” (THE UNIVERSITY OF HONG KONG, priority 2020, dated 2025).

How the values were obtained:
[1] = test system: human umbilical vein endothelial cells (HUVEC); test: Light-triggered cellular uptake in HUVEC cells, fluorescence microscopy; assay type: cell-based
Protocol: We further investigated the cellular uptake of the photo-released DOX by fluorescence microscopy and flow cytometry. In this work, human umbilical vein endothelial cells (HUVEC) and human retinoblastoma cells (WERI-Rb-1) were employed to investigate the cellular uptake. The cells were treated with various formulations, including free DOX, DOX/DTNPs and DOX/DTNPs+light irradiation (hv).

[2] = test system: WERI-Rb-1-GFP-luc orthotopic tumor; test: Therapeutic effect on orthotopic WERI-Rb-1-GFP-luc tumors, bioluminescence; assay type: in vivo, BALB/c nude mice; conditions: Day 25; 5 mg/kg I.V. every two days for five times; no irradiation
Protocol: (§1) Generally, WERI-Rb-1 cells were injected slowly into the vitreous cavity at the right eyes of Bulb/c nude mice for the tumor implantation. […] The light irradiation was performed at the right eyes immediately after injection. […] To evaluate the biodistribution, the mice were euthanized after the above treatment, and their eyes (both sides), heart, lung, liver, spleen and kidney were further exteriorized for ex vivo fluorescence imaging. […] Seven days after the intraocular injection of WERI-Rb-1-GFP-luc cells, the luminescence signals from the cells can be determined by in vivo imaging system for in situ monitoring of orthotopic ocular tumors. […] The dosage of drug administration was precisely controlled based on the body weight of mice and set as 5 mg/kg body weight. The I.V. injection of formulations was applied every two days for five times. […] During the treatment, bioluminescence from the tumors was detected for tumor growth monitoring. […] Considering individual differences, tumor growth curves (FIG. 14b) of different groups were obtained by setting the bioluminescence intensity on the day before treatment (Day 0) as the origin and determining the quantitative changes in the subsequent days. […] The histological patterns of tumor-bearing retina and main organs were studied by hematoxylin and eosin (H&E) staining (FIG. 15 and FIG. 16).

[3] = Systemic toxicity in treated tumor-bearing mice: body weight and H&E histology; assay type: in vivo, BALB/c nude mice; conditions: drug administration period (Day 0 to Day 10), 5 mg/kg I.V.
Protocol: as §1

[4] = Photocleavage under 505 nm green LED light, determined by HPLC; assay type: physicochemical; conditions: free DTAEA in 50% acetonitrile/H2O, 50 mW/cm^2, 1 min
Protocol: The photocleavage mechanism of coumarin carbamate derivatives was reported as carbocation formation following with the addition of —OH group in aqueous solutions (FIG. 6a).^9 To quantitatively measure the photocleavage rate of free DTAEA, quartz cuvettes containing DTAEA in 50% acetonitrile/H2O was irradiated with 505 nm green LED light. At predetermined time points, the remaining DTAEA and released DEAdcCM were determined by high performance liquid chromatography (HPLC). […] The similar photocleavage process in DTAEA NPs took about 5 minutes for the completely consumption of DTAEA (FIG. 6c), which was slightly slow down compared to free DTAEA in the mixture of acetonitrile and water. […] Based on the photocleavage performance of DTAEA and DTNPs, the irradiation duration was set to be no less than 5 min with 505 nm green LED light at 50 mW/cm^2.

SMILES	red fluorescence intensity (DOX) in cells ([1]; HUVEC, no irradiation)	intracellular distribution of DOX fluorescence ([1]; without irradiation)	increase of bioluminescence intensity in eyes, compared to Day 0 [2]	body weight decrease [3]	DTAEA cleaved [4]
COc1cccc2c1C(=O)c1c(O)c3c(c(O)c1C2=O)C[C@@](O)(C(=O)CO)C[C@@H]3O[C@H]1C[C@H](N)[C@H](O)[C@H](C)O1 [free DOX, doxorubicin]	as high as the irradiated group	observed in the cell nuclei	64.0 folds	about 10%	–
CCN(CC)c1ccc2c(c1)OC(=C(C#N)C#N)C=C2COC(=O)NCCN(CCNC(=O)OCC1=CC(=C(C#N)C#N)Oc2cc(N(CC)CC)ccc21)CCNC(=O)OCC1=CC(=C(C#N)C#N)Oc2cc(N(CC)CC)ccc21 [DTAEA, (DEAdcCM)3-TAEA]	–	–	–	–	More than 90%
